Results on 62 compounds are retold here after US6790958B2, “Purine inhibitors of cyclin dependent kinase 2 & IKBA” (priority 1996, dated 2004).

Converted amounts (≈) assume the structure as drawn.

The target of one assay is CDK2 (Homo sapiens, UniProt P24941). The assay can be described thus: CDK2 assay (histone H1 phosphorylation, 32P-ATP filter assay). The settings on record: concentration required to inhibit CDK2 activity by 50%; histone H1, 30 μM ATP, 30° C., 30 min; read-out: IC50 (μg/mL) enzyme (converted). It counts as biochemical. The method, then:
Compositions of this invention were assayed to determine their CDK2 inhibitory activity. The assay system (total volume of 50 μl) contained 50 mM Tris-Cl, pH 7.4, 10 mMgCl2, 5 mM DTT, 1 μg of histone H1, 30 μM ATP (1 μCi of gamma ^32P labeled ATP?), 10 μg of BSA and 1 μg of purified CDK2. After incubation at 30° C. for 30 min, the reaction was terminated by the addition of 10 μl of 10% TCA and the samples were blotted onto to nitrocellulose filters. These filters were washed extensively in 10% TCA and assayed for radioactivity. Blanks contained no enzyme. […] After incubation at 30 min., the assay tubes Were processed as above.

The test system of assay [1] is rat aortic smooth muscle cells. The assay can be described thus: Cell proliferation assay, rat aortic smooth muscle cells (MTS). It counts as cell-based. The settings on record: concentration required to inhibit cell proliferation by 50%, 48 hr incubation, read-out: IC50 (μg/mL) cells. The method, then: Early passage rat aortic smooth muscle cells (CV Therapeutics Cell repository) were seeded in 48 well dishes (Falcon, […]) at a density of 20,000 cells/ml of DME containing 5% heat inactivated bovine serum. The cells were incubated in a standard tissue culture incubator for 48 hr. The medium was aspirated and the wells were replenished with 0.2 ml of fresh medium. Compounds of this invention were added at concentrations ranging from 100 to 0.37 μg/ml. After 48 hr incubation, the medium was aspirated and the cultures were treated with 0.2 ml of saline 0.25 μl of phenozine methosulfate solution containing MTS (Cell Titer 96® Aqueous Non-radioactive cell proliferation assay kit, Catalog # G 5430, Promega, 2800 Woods Hollow Road, Madison, Wis. 53711-5399).

As to `CC(C)n1cnc2c(NCc3ccc(Cl)cc3)nc(N(CCO)CCO)nc21`, the IC50 on CDK2 is 296 nM. `CC(C)n1cnc2c(NCc3ccc(-c4cccs4)cc3)nc(N(CCO)CCO)nc21`: the IC50 at CDK2 was 1100 nM. As for `CC(C)n1cnc2c(NCc3ccc(-c4ccccc4)cc3)nc(N(CCO)CCO)nc21`, the IC50 at CDK2 is 1340 nM. Same read-out and setting: the figure for `CC(C)n1cnc2c(NCc3ccc(F)cc3)nc(NC[C@H](C)O)nc21` is 614 nM; for `CC(C)[C@@H](CO)Nc1nc(NCc2ccc(F)cc2)c2ncn(C(C)C)c2n1` it is 492 nM. `COc1ccc(CNc2nc(Cl)nc3c2ncn3C(F)(C(F)(F)F)C(F)(F)F)cc1`: the IC50 at CDK2 is over 98300 nM. Turning to `COc1ccc(CNc2nc(NCCO)nc3c2ncn3C(C)C)cc1`, the IC50 was 11200 nM on CDK2 and 43 µg/mL (≈ 121 µM) in assay [1]. Regarding `FC(F)(F)n1cnc2c(NCc3ccc(Cl)cc3)nc(Cl)nc21`, the IC50 on CDK2 was 2760 nM.

Take `COc1ccc(CNc2nc(Cl)nc3c2ncn3C(C)C)cc1`: the IC50 on CDK2 was 12100 nM; in assay [1], 77 µg/mL (≈ 232 µM). On to `Cc1ccc(-c2ccc(CNc3nc(N(CCO)CCO)nc4c3ncn4C(C)C)cc2)cc1`, for which the IC50 on CDK2 is 1300 nM.

With `CC(C)n1cnc2c(NCc3ccc(Cl)cc3)nc(N[C@@H](C)CO)nc21`, the IC50 at CDK2 was 694 nM. Turning to `CC(C)n1cnc2c(Nc3ccccc3)nc(Cl)nc21` [R1=anilino; R2=isopropyl; R3=Cl], on CDK2, the IC50 is 3480 nM. As to `COc1cccc(CNc2nc(N(CCO)CCO)nc3c2ncn3C(C)C)c1`, on CDK2, the IC50 was 1250 nM. In the case of `CC(C)[C@H](CO)Nc1nc(NCc2ccc(Cl)cc2)c2ncn(C(C)C)c2n1`, the IC50 on CDK2 is 472 nM. As for `CC(C)n1cnc2c(Nc3ccc(-c4ccccc4)cc3)nc(N(CCO)CCO)nc21`, at CDK2, the IC50 was 1390 nM.

As to `CC(=O)C(C)n1cnc2c(NCc3ccc(F)cc3)nc(N(CCO)CCO)nc21` (stereo not shown), the IC50 on CDK2 is 26400 nM.

As to `CC(C)n1cnc2c(NCc3ccc(F)cc3)nc(NC[C@@H]3CCCO3)nc21`, the IC50 at CDK2 is 1640 nM. On the same count and under the same terms, the result for `CC(C)n1cnc2c(Nc3cccc(-c4ccc(C#N)cc4)c3)nc(N(CCO)CCO)nc21` reads 1090 nM.

For `Cn1cnc2c(NCCO)nc(NCCO)nc21` [R1=ethanolamino; R2=Me; R3=Ethanolamino], the IC50 is over 238000 nM at CDK2 and over 70 µg/mL in assay [1]. `COc1ccc(CNc2nc(NC(CO)CO)nc3c2ncn3C(C)C)cc1`: in assay [1], the IC50 came out at 15 µg/mL (≈ 38.8 µM).

`CC(C)n1cnc2c(NCc3ccc4c(c3)OCO4)nc(N(CCO)CCO)nc21`: the IC50 at CDK2 is 1930 nM. On to `CC(C)n1cnc2c(NCc3ccc(Cl)cc3)nc(NCC(O)c3ccccc3)nc21` (stereo not shown), for which the IC50 at CDK2 was 183 nM; in assay [1] it was over 5 µg/mL.

As for `CC(C)n1cnc2c(NCc3ccc(-c4ccccn4)cc3)nc(N(CCO)CCO)nc21`, the IC50 on CDK2 was 358 nM. As for `COc1ccc(CNc2nc(Cl)nc3c2ncn3CCCCl)cc1`, the IC50 at CDK2 was over 164000 nM. In the case of `CSc1ccc(Nc2nc(Cl)nc3c2ncn3C(C)C)cc1`, the IC50 at CDK2 is 1800 nM.

As to `CC(C)n1cnc2c(NCc3ccc(Cl)cc3)nc(NC[C@H](C)O)nc21`, the IC50 on CDK2 is 1010 nM.

In the case of `COc1ccc(CNc2nc(NCC(O)CN)nc3c2ncn3C(C)C)cc1` (stereo not shown), the IC50 on CDK2 is 1560 nM; in assay [1], 25 µg/mL (≈ 64.9 µM). Take `COc1ccc(CNc2nc(N(CCO)CCO)nc3c2ncn3CCO)cc1`: the values for the IC50 (at CDK2; in assay [1]) were 1240 nM and 62 µg/mL (≈ 154 µM), respectively.

As for `CC(C)n1cnc2c(NCc3ccc(F)cc3)nc(NCCN)nc21`, the IC50 in assay [1] was found to be 1.4 µg/mL (≈ 4.08 µM).

Turning to `CC(N)CNc1nc(NCc2ccc(F)cc2)c2ncn(C(C)C)c2n1` (stereo not shown), the IC50 on CDK2 is 1340 nM. As for `COc1ccc(CNc2nc(N(CCO)CCO)nc3c2ncn3C)cc1`, the results for the IC50 (at CDK2; in assay [1]) were 10700 nM and 48 µg/mL (≈ 129 µM), respectively.

On to `CC(C)n1cnc2c(NCc3ccc(F)cc3)nc(NC[C@@H](C)O)nc21`, for which the IC50 on CDK2 was 642 nM; in assay [1], over 5 µg/mL.

On to `COc1ccc(CNc2nc(N(CCO)Cc3ccccc3)nc3c2ncn3C(C)C)cc1`, for which the IC50 on CDK2 was 2240 nM. On the same count and under the same terms, the figure for `CC(C)n1cnc2c(NCc3ccc(Cl)cc3)nc(N[C@@H](Cc3ccccc3)C(N)=O)nc21` is 2310 nM. As to `COc1ccc(CNc2nc(NCCO)nc3c2ncn3C)cc1`, the values for the IC50 (on CDK2; in assay [1]) were 12200 nM and 48 µg/mL (≈ 146 µM), respectively. Take `COc1ccc(CNc2nc(N(CCO)CCO)nc3c2ncn3C(F)(C(F)(F)F)C(F)(F)F)cc1`: the IC50 at CDK2 was 76000 nM. Same read-out and setting: the figure for `CC(C)n1cnc2c(NCC3CCCCC3)nc(Cl)nc21` is 3250 nM; for `CC(=O)C(C)n1cnc2c(NCc3ccc(Cl)cc3)nc(N(CCO)CCO)nc21` (stereo not shown) it is 85500 nM. On to `CC(C)n1cnc2c(NCc3ccc(Cl)cc3)nc(NCCCN)nc21`, for which the IC50 at CDK2 was 2670 nM. Regarding `CC(C)[C@H](CO)Nc1nc(NCc2ccc(F)cc2)c2ncn(C(C)C)c2n1`, the IC50 on CDK2 was 155 nM; in assay [1], 2.7 µg/mL (≈ 6.99 µM). For the compound `CSc1ccc(Nc2nc(N(CCO)CCO)nc3c2ncn3C(C)C)cc1`, the IC50 at CDK2 is 174 nM. Turning to `CCC(CO)Nc1nc(NCc2ccc(F)cc2)c2ncn(C(C)C)c2n1` (stereo not shown), the IC50 in assay [1] was found to be 2.4 µg/mL (≈ 6.44 µM). On to `CC(C)n1cnc2c(NCc3ccc(F)cc3)nc(NC[C@H]3CCCO3)nc21`, for which the IC50 at CDK2 was 1510 nM. Same read-out and setting: the figure for `COc1cccc(CNc2nc(Cl)nc3c2ncn3C(C)C)c1` is 2710 nM; for `CC(C)n1cnc2c(NCc3ccc(Cl)cc3)nc(NCCN)nc21` it is 973 nM; for `CC(C)n1cnc2c(NCc3ccc(Cl)cc3)nc(NCCCCCN)nc21` it is 77100 nM. Take `CC(C)n1cnc2c(NCc3ccc(Cl)cc3)nc(NC[C@@H](C)O)nc21`: the IC50 on CDK2 is 1150 nM. As for `COc1ccc(CNc2nc(Cl)nc3c2ncn3Cc2ccccc2)cc1`, the IC50 on CDK2 is over 158000 nM; in assay [1], over 70 µg/mL. Regarding `CC(C)n1cnc2c(NCc3ccc(-c4ccccc4)cc3)nc(NCC(O)CO)nc21` (stereo not shown), on CDK2, the IC50 was 1390 nM. The same measure, in the same setting: the result for `CC(C)[C@@H](CO)Nc1nc(NCc2ccc(Cl)cc2)c2ncn(C(C)C)c2n1` reads 124 nM. Turning to `COc1ccc(CNc2nc(N3CC=CC3)nc3c2ncn3C(C)C)cc1`, the figures for the IC50 (at CDK2; in assay [1]) were 2740 nM and 12.5 µg/mL (≈ 34.3 µM), respectively. For the compound `CC(C)n1cnc2c(NCc3ccc(-c4ccc(C(F)(F)F)cc4)cc3)nc(N(CCO)CCO)nc21`, the IC50 on CDK2 is 1170 nM. Regarding `CC(C)n1cnc2c(NCc3ccc(Cl)cc3)nc(NC[C@@H](N)Cc3ccccc3)nc21`, the IC50 on CDK2 is 2380 nM. In the case of `CSc1cccc(Nc2nc(N(CCO)CCO)nc3c2ncn3C(C)C)c1`, the IC50 at CDK2 was 248 nM. On to `CC(CO)Nc1nc(NCc2ccc(F)cc2)c2ncn(C(C)C)c2n1` (stereo not shown), for which the IC50 on CDK2 is 502 nM. For the compound `COc1ccc(CNc2nc(N3CCCC(O)C3)nc3c2ncn3C(C)C)cc1` (stereo not shown), the IC50 on CDK2 was 2520 nM.

For the compound `COc1ccc(CNc2nc(Cl)nc3c2ncn3CCCC#N)cc1`, on CDK2, the IC50 was over 168000 nM. For `COc1ccc(CNc2nc(Cl)nc3c2ncn3C)cc1` [R1=4-methoxybenzylamino; R2=Me; R3=Cl], the IC50 at CDK2 is 19800 nM; in assay [1] it was over 70 µg/mL. Consider `OCCNc1nc(NCc2ccccc2)nc2[nH]cnc12` [R1=ethanolamino; R2=H; R3=Benzylamino], for which the IC50 at CDK2 was over 211000 nM. Same read-out and setting: the result for `COc1ccc(CNc2nc(N(CC(C)O)CC(C)O)nc3c2ncn3C(C)C)cc1` (stereo not shown) reads 1870 nM.

As to `CC(C)n1cnc2c(NCc3ccc(F)cc3)nc(N(CCO)CCO)nc21`, the IC50 is 386 nM at CDK2 and 2.2 µg/mL (≈ 5.66 µM) in assay [1].

On to `CC(C)n1cnc2c(NCc3ccc(Cl)cc3)nc(N[C@H](C)CO)nc21`, for which the IC50 on CDK2 is 934 nM.
